The source of these data is patent US10526352B2, “Tricyclic benzoxaborole compounds and uses thereof” (GlaxoSmithKline Intellectual Property (No.2) Limited, priority 2013, dated 2020).

The structures appear in SMILES notation. In brackets after ≈: the same amount, converted by molar mass. Like-named read-outs stand apart in the source and are kept apart here.

For one data set, the system named is E. coli K12 tolC::Tn10. As to the kind of experiment: General antimicrobial activity assay (CLSI broth microdilution). The format is cell-based, Escherichia coli. The protocol:
(§1) Whole-cell antimicrobial activity was determined by broth microdilution using the Clinical and Laboratory Standards Institute (CLSI) recommended procedure, Document M7-A7, “Methods for Dilution Susceptibility Tests for Bacteria that Grow Aerobically”.

Another data set relates to E. coli K12. The data set is described as above. The format is cell-based, Escherichia coli. The protocol: as §1
The test system of a further data set is P. aeruginosa PA01. The data set is described as above. The format is cell-based, Pseudomonas aeruginosa. The method, then:
as §1

In data set [1] the test system is M. tuberculosis standard strain Mtb H37Rv. Nature of the data set: MIC determination against mycobacteria (resazurin, Middlebrook 7H9). The data set is classed as cell-based, Mycobacterium tuberculosis. As to conditions: read-out: Mtb H37Rv MIC (B). For orientation: Alamar Blue is a resazurin reagent that responds to reducing activity.
The subject of data set [2] is M. tuberculosis clinical isolates. Nature of the data set: MIC against clinical strains (BACTEC MGIT 960 System). The format is cell-based. The settings on record: Mycobacterium tuberculosis.
The test system of a further data set is A. baumannii ATCC 17978. As to the kind of experiment: General antimicrobial activity assay (CLSI broth microdilution). The format is cell-based, Acinetobacter baumannii. The protocol:
as §1

Another data set has as its target Mtb LeuRS (Mycobacterium tuberculosis, UniProt P9WFV1). As to the kind of experiment: biochemical. Further details: species or system M. tuberculosis.
[3] abbreviates: HepG2 Tox50 (A) / Mtb H37Rv MIC (B).
The mark [4] stands for this setting: Mycobacterium tuberculosis, H37RV.

Sequence of Mtb LeuRS (P9WFV1 whole entry): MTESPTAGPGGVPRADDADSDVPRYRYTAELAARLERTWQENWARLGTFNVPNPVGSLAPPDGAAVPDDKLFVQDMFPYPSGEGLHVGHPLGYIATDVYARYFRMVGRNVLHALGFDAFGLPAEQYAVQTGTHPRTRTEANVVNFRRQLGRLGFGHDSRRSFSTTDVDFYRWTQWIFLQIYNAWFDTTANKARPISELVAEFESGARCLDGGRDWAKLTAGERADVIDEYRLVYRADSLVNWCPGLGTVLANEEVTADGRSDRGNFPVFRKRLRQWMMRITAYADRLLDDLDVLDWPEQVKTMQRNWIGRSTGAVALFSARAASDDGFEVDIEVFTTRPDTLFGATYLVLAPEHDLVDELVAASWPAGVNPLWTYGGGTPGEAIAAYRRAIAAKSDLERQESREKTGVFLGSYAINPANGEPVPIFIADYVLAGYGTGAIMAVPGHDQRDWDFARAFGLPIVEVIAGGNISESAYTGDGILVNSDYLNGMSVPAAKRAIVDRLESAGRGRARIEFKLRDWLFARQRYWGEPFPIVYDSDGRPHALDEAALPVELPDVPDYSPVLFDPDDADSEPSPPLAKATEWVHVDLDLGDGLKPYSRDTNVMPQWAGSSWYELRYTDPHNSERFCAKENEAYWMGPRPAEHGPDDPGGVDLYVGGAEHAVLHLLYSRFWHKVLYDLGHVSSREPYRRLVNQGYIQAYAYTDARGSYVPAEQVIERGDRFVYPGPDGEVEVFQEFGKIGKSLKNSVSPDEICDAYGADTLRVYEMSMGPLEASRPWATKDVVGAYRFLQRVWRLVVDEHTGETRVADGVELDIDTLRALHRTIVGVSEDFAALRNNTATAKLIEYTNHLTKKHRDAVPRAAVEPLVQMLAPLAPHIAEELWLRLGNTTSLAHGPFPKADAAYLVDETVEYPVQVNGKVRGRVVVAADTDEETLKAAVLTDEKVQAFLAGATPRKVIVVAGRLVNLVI

For the compound `Cl.NC[C@H]1OB2OCCOc3ccc(Br)c1c32` [Example 2, (S)-(3-bromo-7,8-dihydro-2H-1,6,9-trioxa-9a-borabenzo[cd]azulen-2-yl)methanamine hydrochloride], in the data set with E. coli K12 tolC::Tn10, the “MIC: E. coli K12 tolC::Tn10” value was 64 µg/mL. Also, the “MIC: E. coli K12” value against E. coli K12 was 64 µg/mL. For the same compound, the “MIC: P. aeruginosa PA01” value in the data set with P. aeruginosa PA01 came out at 64 µg/mL. Also, the “HepG2 cell 48 h Tox50 (A)” value in the data set on HepG2 cells (48 h) came to 292.4 µM. Also, the “Selectivity Index (A/B)” value in the data set on HepG2 cells (setting [3]) was determined as 4177. For the same compound, the MIC (usually the lowest concentration found to suppress growth) in data set [1] (setting [4]) is less than 0.1 µM; in data set [1] (hydrochloride) it was 0.07 µM; in data set [2] (for all of but 1 of the 40 clinical isolate strains tested) it was less than 1 µM; in data set [2] (read-out: measured MIC (breakdown), for 1 strain (EXAMPLE 2 and EXAMPLE 4), highest MIC), 0.16 µM; in data set [2] (read-out: measured MIC (breakdown), for 1 strain of 40 clinical isolates (EXAMPLE 2)) it was 0.04 µM; in data set [2] (read-out: measured MIC (breakdown), for 40 strains (EXAMPLE 2 and EXAMPLE 4)) it was 0.08 µM. Moreover, the MIC was determined as 0.08 µM in data set [2] (strain 137, sensitive clinical isolate); 0.08 µM in data set [2] (strain 169, sensitive clinical isolate); 0.08 µM in data set [2] (strain 192, sensitive clinical isolate); 0.08 µM in data set [2] (strain 199, sensitive clinical isolate); 0.08 µM in data set [2] (strain 206, sensitive clinical isolate); 0.08 µM in data set [2] (strain 207, sensitive clinical isolate). The MIC is 0.08 µM in data set [2] (strain 208, sensitive clinical isolate); 0.08 µM in data set [2] (strain 223, sensitive clinical isolate); 0.08 µM in data set [2] (strain 231, sensitive clinical isolate); 0.08 µM in data set [2] (strain 237, sensitive clinical isolate); 0.08 µM in data set [2] (strain 247, sensitive clinical isolate); 0.08 µM in data set [2] (strain 248, sensitive clinical isolate). The MIC in data set [2] (strain 249, sensitive clinical isolate) stood at 0.08 µM; in data set [2] (strain 255, sensitive clinical isolate) it was 0.08 µM; in data set [2] (strain 261, sensitive clinical isolate), 0.08 µM; in data set [2] (strain 265, sensitive clinical isolate), 0.08 µM; in data set [2] (strain 269, sensitive clinical isolate), 0.08 µM; in data set [2] (strain 281, sensitive clinical isolate) it was 0.08 µM. For the same compound, the MIC is 0.08 µM in data set [2] (strain 292, sensitive clinical isolate); 0.08 µM in data set [2] (strain 314, sensitive clinical isolate); 0.08 µM in data set [2] (strain 316, sensitive clinical isolate); 0.08 µM in data set [2] (strain 317, sensitive clinical isolate); 0.08 µM in data set [2] (strain 322, sensitive clinical isolate); 0.08 µM in data set [2] (strain 323, sensitive clinical isolate). For the same compound, the MIC came to 0.08 µM in data set [2] (strain 324, sensitive clinical isolate); 0.08 µM in data set [2] (strain 326, sensitive clinical isolate); 0.08 µM in data set [2] (strain 327, sensitive clinical isolate); 0.08 µM in data set [2] (strain 328, sensitive clinical isolate); 0.08 µM in data set [2] (strain 329, sensitive clinical isolate); 0.08 µM in data set [2] (strain 332, sensitive clinical isolate). The MIC in data set [2] (strain 333, sensitive clinical isolate) was found to be 0.08 µM; in data set [2] (strain 358, sensitive clinical isolate), 0.08 µM. The “MIC: A. baumannii ATCC 17978” value in the data set with A. baumannii ATCC 17978 was found to be 64 µg/mL.
`CC1(C)COc2ccc(Cl)c3c2B(OC3CN)O1.Cl` (centres unmarked) [Example 11, (3-chloro-8,8-di methyl-7,8-dihydro-2H-1,6,9-trioxa-9a-borabenzo[cd]azulen-2-yl)methanamine Hydrochloride]: the “MIC: E. coli K12 tolC::Tn10” value in the data set on E. coli K12 tolC::Tn10 is more than 64 µg/mL. For the same compound, the “MIC: E. coli K12” value against E. coli K12 was more than 64 µg/mL. In addition, the “MIC: P. aeruginosa PA01” value against P. aeruginosa PA01 was more than 64 µg/mL. The “HepG2 cell 48 h Tox50 (A)” value in the data set on HepG2 cells (48 h) is more than 50 µM. In the data set on HepG2 cells (hydrochloride), the “Selectivity Index (A/B)” value is more than 185. The MIC in data set [1] (setting [4]) was found to be 0.27 µM. Moreover, the “MIC: A. baumannii ATCC 17978” value in the data set on A. baumannii ATCC 17978 was more than 64 µg/mL.
Turning to `C[C@]1(CO)COc2ccc(Br)c3c2B(OC3CN)O1` (stereo partly drawn) [Example 17, ((2S, 8S, or 2R, 8R)-2-(aminomethyl)-3-bromo-8-methyl-7,8-dihydro-2H-1,6,9-trioxa-9a-borabenzo[cd]azulen-8-yl)methanol], the “Selectivity Index (A/B)” value in the data set with HepG2 cells (setting [3]) was more than 50. Also, the “HepG2 cell 48 h Tox50 (A)” value in the data set with HepG2 cells (human, 48 h) is more than 50 µM. Further, the MIC in data set [1] (setting [4]) is 0.925 µM (≈ 0.303 µg/mL). Further, at Mtb LeuRS, the midpoint of inhibition, the IC50, lay at 1970 nM.
Regarding `CC1COc2cccc3c2B(O1)OC3CN` (centres unmarked) [Example C11-H, reference compound], in the data set on E. coli K12 tolC::Tn10, the “MIC: E. coli K12 tolC::Tn10” value was found to be 2 µg/mL (≈ 9.13 µM). In addition, in the data set on E. coli K12, the “MIC: E. coli K12” value stood at 2 µg/mL (≈ 9.13 µM). For the same compound, the “MIC: P. aeruginosa PA01” value in the data set with P. aeruginosa PA01 was found to be 2 µg/mL (≈ 9.13 µM). Further, the “HepG2 cell 48 h, figure in brackets beside Tox50” value in the data set on HepG2 cells (48 h, printed as >50 (40%)) amounted to 40%. Also, in the data set with HepG2 cells (setting [3]), the “Selectivity Index (A/B)” value is given as more than 32. The “HepG2 cell 48 h Tox50 (A)” value in the data set with HepG2 cells (human, 48 h) was more than 50 µM. Further, in data set [1] (setting [4]), the MIC stood at 1.56 µM (≈ 0.342 µg/mL). In the data set on A. baumannii ATCC 17978, the “MIC: A. baumannii ATCC 17978” value was 4 µg/mL (≈ 18.3 µM).
Consider `CC1(C)COc2cccc3c2B(OC3CN)O1` (centres unmarked) [Example C12-H, reference compound], for which, in the data set on E. coli K12 tolC::Tn10, the “MIC: E. coli K12 tolC::Tn10” value was found to be 2 µg/mL (≈ 8.58 µM). Moreover, the “MIC: E. coli K12” value against E. coli K12 came to 4 µg/mL (≈ 17.2 µM). For the same compound, the “MIC: P. aeruginosa PA01” value in the data set with P. aeruginosa PA01 is 16 µg/mL (≈ 68.6 µM). Besides, the “Selectivity Index (A/B)” value in the data set on HepG2 cells (setting [3]) is more than 4.9. Also, the “HepG2 cell 48 h Tox50 (A)” value in the data set on HepG2 cells (human, 48 h) was determined as 24.5 µM. Moreover, the MIC in data set [1] (setting [4]) was more than 5 µM. The “MIC: A. baumannii ATCC 17978” value in the data set with A. baumannii ATCC 17978 was determined as 4 µg/mL (≈ 17.2 µM).
For the compound `CC1(C)COc2c(Cl)ccc3c2B(O[C@@H]3CN)O1` [Example C13-Cl, reference compound], the “Selectivity Index (A/B)” value with HepG2 cells (setting [3]) was more than 10. Further, the “HepG2 cell 48 h Tox50 (A)” value in the data set with HepG2 cells (human, 48 h) was more than 50 µM. For the same compound, in data set [1] (setting [4]), the MIC was 5 µM (≈ 1.34 µg/mL). Moreover, the IC50 (commonly the concentration needed to halve the response being measured) against Mtb LeuRS amounted to 2160 nM.
